pKi: −log10 of the molar value. Entries after “also recorded” stand apart in the source; their conditions may differ.
How the values were obtained:
[1] = target: T1, purified LasB protein from P. aeruginosa (Pseudomonas aeruginosa, UniProt P14756); experiment: Fluorometric assay to determine Ki (purified LasB, Abz-Ala-Gly-Leu-Ala-p-Nitro-Benzyl-Amide substrate); assay type: biochemical
T1 construct: purchased Merck or Charles River Laboratories
Description: (§1) Experiments were therefore conducted (1) to measure the potency of inhibition of compounds of the invention against purified Pseudomonas aeruginosa LasB enzyme and also experiments were conducted (2) to measure the ability of compounds of the invention to inhibit LasB-catalysed elastin degradation. The first assay uses a commercial fluorescent synthetic peptide and purified LasB enzyme. The LasB hydrolysis kinetics are measured allowing the determination of the IC50 and Ki of the inhibitors; the second is a more physiological assay using dialysed Pseudomonas aeruginosa supernatant as source of enzyme, plus its natural substrate Elastin. It is an “end point assay” that determines the percentage of LasB inhibition by each compound for one particular time point and inhibitor concentration. Technical details are described below:
This assay uses commercially available substrate (Abz-Ala-Gly-Leu-Ala-p-Nitro-Benzyl-Amide (Ex: 340 nm, Em: 415 nm) from Peptide International) and purified LasB protein from P. aeruginosa (provided by Merck or Charles River Laboratories). It is performed to determine LasB elastase activity and assess compound inhibition in 96-well plate format. All compounds of Formula (I) were assessed using the method described below.
Method: 10 to 140 ng/ml purified LasB is incubated with 250 μM Abz-Ala-Gly-Leu-Ala-p-Nitro-Benzyl-Amide in 50 mM Tris-HCl pH 7.4, 2.5 mM CaCl2), 0.01% of Triton X100 at 37° C. LasB activity (corresponding to fluorescence emission induced by substrate hydrolysis) is measured over 30 min at 37° C. with a fluorescence plate reader such as the Perkin Elmer Envision or similar. Different range of inhibitor concentrations are routinely assessed depending of inhibitor potency from 0.0016 to 200 μM (2-fold dilutions series) in order to determine IC50.
The equation used to calculate the Ki from IC50 is: Ki=IC50/(1+([S]/Km)) where [S]=250 μM and Km=214 μM.

[2] = target: T2, LasB elastase activity of dialysed supernatant from P. aeruginosa PAO1 (Pseudomonas aeruginosa, UniProt P14756); experiment: Elastin Congo-Red assay to determine % inhibition (dialysed PAO1 supernatant); assay type: biochemical; settings: read-out: Elastin hydrolysis % inhibition @ 25 μM inhibitor concentration
T2 construct: Culture supernatants are recovered by centrifugation and filtrated through a 0.22 μM filter; endogenous in cells; host or cells: P. aeruginosa strain PAO1, culture supernatant, filtered and dialysed
T2 sequence (P14756 198-498): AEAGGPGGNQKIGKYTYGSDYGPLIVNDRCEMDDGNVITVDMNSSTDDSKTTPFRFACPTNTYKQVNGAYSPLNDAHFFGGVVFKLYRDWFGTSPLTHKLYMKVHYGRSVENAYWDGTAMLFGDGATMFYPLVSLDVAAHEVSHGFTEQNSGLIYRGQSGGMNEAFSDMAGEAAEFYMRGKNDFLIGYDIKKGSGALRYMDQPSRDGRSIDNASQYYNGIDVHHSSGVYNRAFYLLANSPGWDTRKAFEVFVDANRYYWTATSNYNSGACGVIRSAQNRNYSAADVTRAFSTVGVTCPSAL
Description: as §1
The Elastin assay uses as source of enzyme dialysed supernatant from P. aeruginosa PAO1 and the Elastin Congo-Red as substrate. The natural LasB substrate, elastin, is complexed with the congo-red dye (Elastin Congo-Red, ECR). The elastolysis activity from the culture supernatant will degrade elastin and release the congo-red dye into the supernatant. This red dye release can be measured with a spectrophotometer.
Method: To determine LasB elastase activity and assess compound inhibition, an overnight culture of P. aeruginosa strain PAO1 is diluted in LB medium. After reaching an OD600nm of 0.6, this culture is diluted and incubated for additional 18-24 hours in a shaking incubator. Culture supernatants are recovered by centrifugation and filtrated through a […] filter. These supernatants are dialysed (filtration molecules <20 kDa) into a 50 mM Tris-HCl pH 7.4, 2.5 mM CaCl2 solution at 4° C. under agitation for 24 hours. Supernatant dialysed is then mixed volume/volume with the ECR suspension (20 mg/mL of ECR in 100 mM Tris-HCl pH 7.4 buffer supplemented with 1 mM CaCl2)) supplemented with Triton X100 (final concentration of 0.01%) in presence of DMSO (positive control) and/or different concentrations of compound (routinely 50 to 1.56 μM). As a negative control, the dialysed supernatant is replaced by Tris-HCl solution (50 mM Tris-HCl pH 7.4, 2.5 mM CaCl2). The mixed reaction is then incubated overnight in a 37° C. shaking incubator. The reaction supernatant is recovered by centrifugation and the release of congo-red is measured by its absorbance at 495 nm (OD495nm).
Percentage inhibition is determined using the following equation:
((OD495 nm value of positive control−OD495nm value of negative control)−(OD495nm value of treated supernatant−OD495nm value of negative control))/(OD495nm value of positive control−OD495nm value of negative control)×100.

purified LasB = purified LasB (Pseudomonas aeruginosa, UniProt P14756); experiment: Inhibition of LasB-mediated hydrolysis of pro-IL-1β to IL-1β (FRET peptide); assay type: biochemical
purified LasB, sequence (P14756 198-498): as above
Description: Hydrolysis of this FRET peptide was continuously monitored using a Victor multimode plate reader (Perkin Elmer) with excitation 355 nm and emission at 450 nm in the presence of varying concentrations of compounds of the invention. Inhibitory constants (Ki) were determined for certain compounds of the invention (at least 2 independent replicates) using a competitive inhibitor model.

F508del-CFTR cells = experiment: Forskolin-activated CFTR response in CF-mutant human bronchial epithelial cells (membrane potential dye); assay type: cell-based
Description: This example describes experiments showing that LasB impacted CFTR function in CF mutant cells can be mitigated by treatment with CFTR modulators and LasB inhibitors.
Wild Type human bronchial epithelial (HBE) cells and CF-mutant human bronchial epithelial cells (F508del-CFTR) are grown at 37° C. for 5 days and loaded onto 96-well plate cultures. The cells are loaded with blue membrane potential dye dissolved in chloride-free buffer. The plate is read in a fluorescence plate reader at 37° C. (excitation: 530 nm; emission; […]). CFTR is stimulated with forskolin.
A control signal defined as 100% transmission is obtained from WT human bronchial epithelial cells alone. A minor suppression of forskolin-activated CFTR response is expected for such WT cells in the presence of LasB.
Moderate suppression in the forskolin-activated CFTR response will be observed for CF-mutant cells. This moderate suppression will be reduced by addition of a CFTR modulator such as VX-809 (lumacaftor).
Substantial suppression in the forskolin-activated CFTR response is expected for CF-mutant cells in the presence of LasB, even following the addition of a CFTR modulator, due to the deleterious effect of LasB on expressed CFTR protein.

[3] = system: PAO1 WT secretome (contains LasB); settings: WT-SEC treated cells; cited from earlier work
PA (PAO1) = experiment: Mouse model of Pseudomonas aeruginosa lung infection; assay type: in vivo; settings: mice infected with wild-type PAO1, i.v. 1 h and 2 h post infection, 10 and 30 mg/kg, 24 hours post infection
Description: Mice were dosed by intranasal inoculation of PA (PAO1), then sacrificed after 24 hours. The extent of infection in the lung was quantified by bacterial load (CFU determination, colony forming units) and the levels of proinflammatory IL-1β. Statistical analysis on both readouts were performed by ANOVA with a Dunnett post-test.
Compounds were administered intravenously in a two-dose regimen (1 hour and 2 hours post infection) at two different doses (10 and 30 mg/kg).

[4] = system: cells infected by tobramycin-resistance PA bacteria; settings: combination with CFTR modulators, tobramycin-resistant PA; cited from earlier work

T1 sequence (P14756 198-498): as above

| SMILES | pKi [1] | inhibition at 25 µM [2] | pKi (purified LasB) | further results |
| --- | --- | --- | --- | --- |
| COc1cc2sc(CNC(=O)C3(CC(=O)[O-])Cc4cc(F)c(F)cc4C3)nc2cc1OCC1CC[N+](C)(C)CC1 [Example 44, 2-[2-[[5-[(1,1-dimethylpiperidin-1-ium-4-yl)methoxy]-6-methoxy-1,3-benzothiazol-2-yl]methylcarbamoyl]-5,6-difluoro-indan-2-yl]acetate] | > 7.30 | > 80% | 6.52 | – |
| COc1cc2sc(CNC(=O)C3(CC(=O)[O-])Cc4ccccc4C3)nc2cc1OCCC[N+](C)(C)CCO [Example 20, 2-[2-[[5-[3-[2-hydroxyethyl(dimethyl)ammonio]propoxy]-6-methoxy-1,3-benzothiazol-2-yl]methylcarbamoyl]indan-2-yl]acetate] | > 7.30 | 60 to 80% | 6.47 | – |
| Cc1ccc(NC(=O)C2(c3ccc4c(c3)OC(F)(F)O4)CC2)nc1-c1cccc(C(=O)O)c1 [VX-809, lumacaftor, reference compound] | – | – | – | Maximum forskolin-activated response of CFTR channels compared to WT human bronchial epithelial cells (F508del-CFTR cells; F508del-CFTR cells + 10 μM VX-809): Minor suppression of CFTR; Maximum forskolin-activated response of CFTR channels compared to WT human bronchial epithelial cells (F508del-CFTR cells; F508del-CFTR cells + 10 μM VX-809 + 0.01 μM LasB): substantial suppression of CFTR |
| COc1cc2sc(CNC(=O)C3(CC(=O)[O-])Cc4ccccc4C3)nc2cc1OCCC[N+](C)(CCO)CCO [Example 22, 2-[2-[[5-[3-[bis(2-hydroxyethyl)-methyl-ammonio]propoxy]-6-methoxy-1,3-benzothiazol-2-yl]methylcarbamoyl]indan-2-yl]acetate] | > 7.30 | 60 to 80% | 6.40 | – |
| CC(C)C[C@H](NP(=O)(O)O[C@@H]1O[C@@H](C)[C@H](O)[C@@H](O)[C@H]1O)C(=O)N[C@@H](Cc1c[nH]c2ccccc12)C(=O)O [phosphoramidon] | – | – | – | downregulation of trappin-2 and IL-6 by WT secretome [3]: prevented |
| COc1cc2sc(CNC(=O)C3(CC(=O)[O-])Cc4cc(F)c(F)cc4C3)nc2cc1OCCOCC[N+](C)(C)C [Example 55, 2-[5,6-difluoro-2-[[6-methoxy-5-[2-[2-(trimethylammonio)ethoxy]ethoxy]-1,3-benzothiazol-2-yl]methylcarbamoyl]indan-2-yl]acetate] | > 7.30 | – | 6.38 | – |
| COc1cc2sc(CNC(=O)C3(CC(=O)[O-])Cc4cc(F)c(F)cc4C3)nc2cc1OCCC[N+]1(C)CCCC1 [Example 19, 2-[5,6-difluoro-2-[[6-methoxy-5-[3-(1-methylpyrrolidin-1-ium-1-yl)propoxy]-1,3-benzothiazol-2-yl]methylcarbamoyl]indan-2-yl]acetate] | > 7.30 | > 80% | 6.57 | – |
| COc1cc2sc(CNC(=O)C3(CC(=O)O)Cc4cc(F)c(F)cc4C3)nc2cc1OCC1CCN(C)CC1 [Example 11, 2-[5,6-difluoro-2-[[6-methoxy-5-[(1-methyl-4-piperidyl)methoxy]-1,3-benzothiazol-2-yl]methylcarbamoyl]indan-2-yl]acetic acid] | > 7.30 | > 80% | 6.66 | – |
| COc1cc2sc(CNC(=O)C3(CC(=O)[O-])Cc4ccccc4C3)nc2cc1OCCC[N+](C)(C)C [Example 53, 2-[2-[[6-methoxy-5-[3-(trimethylammonio)propoxy]-1,3-benzothiazol-2-yl]methylcarbamoyl]indan-2-yl]acetate] | > 7.30 | – | 6.15 | extent of infection in the lung (CFU levels) (PA (PAO1)): reduced the extent of infection in the lung to the level of the LasB deleted mutant; production and activation of IL-1β in the lung (PA (PAO1)): inhibited the production and activation of IL-1β in mice infected by wild-type PA (PA01) at a similar level than the lasB deleted mutant; Maximum forskolin-activated response of CFTR channels compared to WT human bronchial epithelial cells (F508del-CFTR cells; F508del-CFTR cells + 10 μM VX-809 + 0.01 μM LasB + 10 μM Example 53): forskolin-activated CFTR response being substantially restored; also recorded: Minor suppression of CFTR |
| COc1cc2sc(CNC(=O)C3(CC(=O)O)Cc4ccccc4C3)nc2cc1OCCN1CCOCC1 [Example 9, 2-[2-[[6-methoxy-5-(2-morpholinoethoxy)-1,3-benzothiazol-2-yl]methylcarbamoyl]indan-2-yl]acetic acid] | > 7.30 | > 80% | 6.80 | – |
| NC[C@H]1O[C@H](O[C@H]2[C@H](O)[C@@H](O[C@H]3O[C@H](CO)[C@@H](O)[C@H](N)[C@H]3O)[C@H](N)C[C@@H]2N)[C@H](N)C[C@@H]1O [tobramycin] | – | – | – | restoration of CFTR function [4]: incapable of restoring CFTR function |
| COc1cc2sc(CNC(=O)C3(CC(=O)O)Cc4ccccc4C3)nc2cc1OCC(=O)N1CCN(C)CC1 [Example 8, 2-[2-[[6-methoxy-5-[2-(4-methylpiperazin-1-yl)-2-oxo-ethoxy]-1,3-benzothiazol-2-yl]methylcarbamoyl]indan-2-yl]acetic acid] | 6.70 to 7.30 | 60 to 80% | – | – |
| COc1cc2sc(CNC(=O)C3(CC(=O)O)Cc4ccccc4C3)nc2cc1C(=O)N1CCOC(CN(C)C)C1 (centres unmarked) [Example 40, 2-[2-[[5-[2-[(dimethylamino)methyl]morpholine-4-carbonyl]-6-methoxy-1,3-benzothiazol-2-yl]methylcarbamoyl]indan-2-yl]acetic acid] | 6.70 to 7.30 | 60 to 80% | – | – |
| CN1CCN(C(=O)c2ccc3sc(CNC(=O)C4(CC(=O)O)Cc5ccccc5C4)nc3c2)CC1 [Example 27, 2-[2-[[5-(4-methylpiperazine-1-carbonyl)-1,3-benzothiazol-2-yl]methylcarbamoyl]indan-2-yl]acetic acid] | 6.70 to 7.30 | 60 to 80% | – | – |

— patent US20240016941A1, “COMBINATION THERAPY” (priority 2020, published 2024)
